The values that follow come from patent US5688943A, “Benzodiazepine derivatives useful as CCK-receptor antagonists” (Yamanouchi Pharmaceutical Co., Ltd., priority 1992, dated 1997).

SMILES strings stand for the structures. pIC50: −log10 of the molar value.

Experiment [1] has as its target T1, CCK-B receptors (Rattus norvegicus, UniProt P30553).
T1 construct: the whole brain was immediately excised from each of the rats and homogenized; from tissue; host or cells: SD rat whole brain membranes
In words: Measurement of binding affinity for CCK-B receptors ([125I]BH-CCK-8, rat brain membranes). Conditions: for pIC50: rat brain membranes, [125I]BH-CCK-8, 25° C., 120 minutes, pH 6.5, read-out: Receptor binding affinity IC50, CCK-B; for A/B Ratio: ratio IC50 (CCK-A)/IC50 (CCK-B). The arrangement: species or system SD rats. The method, then: Measurement of binding affinity for CCK-B receptors
About 100 SD rats were decapitated without anaesthesia, the whole brain was immediately excised from each of the rats and homogenized in 10-fold volume of 0.32M aqueous solution of sucrose by the use of a Teflon-coated homogenizer, the homogenate thus obtained was centrifuged for ten minutes at 900 g by the use of a cooled centrifuge, and the supernatant was further centrifuged for 15 minutes at 11500 g. The precipitate thus obtained was dispersed in 50 mM Tris-HCl buffer (pH 7.4) containing 0.08% Triton X-100, this suspension was allowed to stand for 30 minutes and again centrifuged for 15 minutes at 11500 g, the precipitate thus obtained was washed twice with 5 mM Tris-HCl buffer and twice with 50 mM Tris-HCl buffer in that order with centrifugal separation, the washed precipitate was suspended in 50 mM Tris-HCl buffer, and the suspension thus obtained was stored at -80° C. until the membrane preparation was required.
The membrane preparations were warmed to room temperature, diluted with 10 mM HEPES buffer (containing 130 mM NaCl, 5 mM MgCl2, 1 mM EGTA and 0.25 mg/ml bacitracin; pH 6.5) and incubated at 25° C. for 120 minutes in the presence of [^125 I]BH-CCK-8 and the test compound, then separated by suction filtration. Non-specific binding was determined in the presence of 1 μM CCK-8. The amount of labelled ligand bound to the receptor was measured by the use of a γ-counter; IC50 values were determined, being that concentration of test compound required to inhibit specific binding by 50%.
(§1) A high affinity for the CCK-A receptor in a gastrin/CCK-B antagonist is thought to be undesirable as it may lead to side-effects such as cholestasis and gall stone formation during therapy. Therefore it is preferable for the therapeutic agent to be selective for the CCK-B receptor. This selectivity is expressed by the ratio IC50 (CCK-A)/IC50 (CCK-B); the higher the value of this ratio the better is the selectivity.

The target of experiment [2] is T2, CCK-A receptors (Rattus norvegicus, UniProt P30551).
T2 construct: The pancreas of an SD rat was homogenized; from tissue; host or cells: SD rat pancreas membranes
T2 sequence (P30551 1-444): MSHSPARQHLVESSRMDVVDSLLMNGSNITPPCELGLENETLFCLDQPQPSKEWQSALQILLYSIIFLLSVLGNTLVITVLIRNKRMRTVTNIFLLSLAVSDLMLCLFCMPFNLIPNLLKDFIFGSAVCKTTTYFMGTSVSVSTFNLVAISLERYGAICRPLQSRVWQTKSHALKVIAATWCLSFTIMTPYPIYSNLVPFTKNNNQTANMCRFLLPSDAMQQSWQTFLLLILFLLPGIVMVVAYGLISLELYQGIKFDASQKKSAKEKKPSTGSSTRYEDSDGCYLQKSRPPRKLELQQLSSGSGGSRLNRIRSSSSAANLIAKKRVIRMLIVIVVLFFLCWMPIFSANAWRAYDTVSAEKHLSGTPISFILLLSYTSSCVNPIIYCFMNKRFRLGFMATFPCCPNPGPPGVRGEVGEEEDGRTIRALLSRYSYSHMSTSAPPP
In words: Measurement of binding affinity for CCK-A receptors ([3H]L-364,718, rat pancreas membranes). The arrangement: species or system SD rat. The settings on record: [3H]L-364,718, 37° C., 30 minutes, read-out: Receptor binding affinity IC50, CCK-A. The method, then:
Measurement of binding affinity for CCK-A receptors
The pancreas of an SD rat was homogenized in a 20-fold volume of 50 mM Tris-HCl buffer (pH 7.7) by the use of a Polytrone-type homogenizer, the homogenate was twice centrifuged for 10 minutes at 50000 g by the use of an ultra-centrifuge, the precipitate thus obtained was suspended in a 40-fold volume of 50 mM Tris-HCl buffer (containing 0.2% BSA, 5 mM MgCl2, 0.1 mg/ml bacitracin and 5 mM DTT; pH 7.7), and the suspension was stored at -80° C. until the membrane preparations were required.
The membrane preparations were then warmed to room temperature, diluted 1:10 with the buffer and incubated at 37° C. for 30 minutes in the presence of [^3 H]L-364,718 and the test compound then separated by suction filtration. Non-specific binding was determined in the presence of 1 μM L-364,718. The amount of labelled ligand bound to the receptor was measured by the use of a liquid scintillation counter; IC50 values were determined, being that concentration of test compound required to inhibit specific binding by 50%
as §1

For orientation: pIC50 means the negative decadic logarithm of the IC50, by convention in mol/L.

T1 sequence (P30553 whole entry): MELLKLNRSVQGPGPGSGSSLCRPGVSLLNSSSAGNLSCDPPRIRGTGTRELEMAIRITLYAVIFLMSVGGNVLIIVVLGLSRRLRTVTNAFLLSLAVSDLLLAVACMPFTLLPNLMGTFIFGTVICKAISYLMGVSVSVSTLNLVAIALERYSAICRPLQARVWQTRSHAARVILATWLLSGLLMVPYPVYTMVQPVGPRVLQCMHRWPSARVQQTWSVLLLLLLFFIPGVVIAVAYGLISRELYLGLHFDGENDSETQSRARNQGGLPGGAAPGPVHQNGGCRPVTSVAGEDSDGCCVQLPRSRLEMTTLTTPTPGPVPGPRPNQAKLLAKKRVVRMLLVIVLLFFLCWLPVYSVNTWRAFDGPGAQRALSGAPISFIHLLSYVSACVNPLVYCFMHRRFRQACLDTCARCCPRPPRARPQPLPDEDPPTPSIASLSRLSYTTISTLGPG

`Cc1cccc(NC(=O)N[C@@H]2N=C(c3ccccc3)c3ccccc3N(CC(=O)C3CCCC3)C2=O)c1` [Example 17, N-((3R)-1-Cyclopentylcarbonylmethyl-2,3-dihydro-2-oxo-5-phenyl-1H-1,4-benzodiazepin-3-yl)-N'-(3-methylphenyl)urea]: the negative logarithm of the IC50 (pIC50) was 10.15 in experiment [1] and 5.60 in experiment [2]. Besides, the “A/B Ratio” value in experiment [1] is 36,000.

Regarding `COc1cccc(NC(=O)NC2N=C(c3ccccc3)c3ccccc3N(CC(=O)C3CCCC3)C2=O)c1` (racemic) [Example 42, N-((3RS)-1-Cyclopentylcarbonylmethyl-2,3-dihydro-2-oxo-5-phenyl-1H-1,4-benzodiazepin-3-yl)-N'-(3-methoxyphenyl)urea], in experiment [1], the negative logarithm of the IC50 (pIC50) is 10.15 and the “A/B Ratio” value is reported as 5,100. Moreover, the pIC50 in experiment [2] is 6.44.

For the molecule `CC(=O)N1CCC[C@H]1C(=O)CN1C(=O)C(NC(=O)Nc2cccc(C)c2)N=C(c2ccccc2)c2ccccc21` (mixture of isomers) [Example 9, N-((3RS)-1-((2S)-1-Acetyl-2-pyrrolidylcarbonylmethyl)-2,3-dihydro-2-oxo-5-phenyl-1H-1,4-benzodiazepin-3-yl)-N'-(3-methylphenyl)urea], in experiment [1], the negative-log IC50 (pIC50) is 8.14 and the “A/B Ratio” value is > 1,400. Also, in experiment [2], the negative logarithm of the IC50 (pIC50) was less than 5.00.

Take `O=C(Nc1cccc(C(=O)O)c1)NC1N=C(c2ccccn2)c2ccccc2N(CC(=O)C2CCCC2)C1=O` (racemic) [Example 22, N-((3RS)-1-Cyclopentylcarbonylmethyl-2,3-dihydro-2-oxo-5-(2-pyridyl)-1H-1,4-benzodiazepin-3-yl)-N'-(3-carboxyphenyl)urea]: in experiment [1], the pIC50 was 8.46 and the “A/B Ratio” value is reported as > 2,900. Also, the negative-log IC50 (pIC50) in experiment [2] is less than 5.00.

Take `O=C(Nc1cccc([N+](=O)[O-])c1)NC1N=C(c2ccccc2)c2ccccc2N(CC(=O)C2CCCC2)C1=O` (racemic) [Example 44, N-((3RS)-1-Cyclopentylcarbonylmethyl-2,3-dihydro-2-oxo-5-phenyl-1H-1,4-benzodiazepin-3-yl)-N'-(3-nitrophenyl)urea]: in experiment [1], the negative-log IC50 (pIC50) is 9.77 and the “A/B Ratio” value is recorded as 9,400. Further, the negative-log IC50 (pIC50) in experiment [2] is 5.80.

Turning to `Cc1cccc(NC(=O)N[C@@H]2N=C(c3ccccc3)c3ccccc3N(C[C@H](O)C3CCCC3)C2=O)c1` [Example 19, N-((3R)-1-((2R)-2-Cyclopentyl-2-hydroxyethyl)-2,3-dihydro-2-oxo-5-phenyl-1H-1,4-benzodiazepin-3-yl)-N'-(3-methylphenyl)urea], in experiment [1], the pIC50 was 9.04 and the “A/B Ratio” value was 1,200. Also, the pIC50 in experiment [2] was 9.00.

Regarding `O=C(O)Cc1cccc(NC(=O)NC2N=C(c3ccccc3)c3ccccc3N(CC(=O)C3CCCC3)C2=O)c1` (racemic) [Example 31, N-((3RS)-1-Cyclopentylcarbonylmethyl-2,3-dihydro-2-oxo-5-phenyl-1H-1,4-benzodiazepin-3-yl)-N'-(3-carboxymethylphenyl)urea], the figures for the pIC50 in experiment [1] and in experiment [2] were 9.28 and 5.47, respectively. In addition, the “A/B Ratio” value in experiment [1] is 6,400.

For `Cc1cccc(NC(=O)NC2N=C(c3ccccn3)c3ccccc3N(CC(=O)C3CCCC3)C2=O)c1` (racemic) [Example 14, N-((3RS)-1-Cyclopentylcarbonylmethyl-2,3-dihydro-2-oxo-5-(2-pyridyl)-1H-1,4-benzodiazepin-3-yl)-N'-(3-methylphenyl)urea], the “A/B Ratio” value in experiment [1] is on record as 22,000.

`CC(C)(C)C(=O)CN1C(=O)C(NC(=O)Nc2cccc([N+](=O)[O-])c2)N=C(c2ccccc2)c2ccccc21` (racemic) [Example 45, N-((3RS)-1-tert-Butylcarbonylmethyl-2,3-dihydro-2-oxo-5-phenyl-1H-1,4-benzodiazepin-3-yl)-N'-(3-nitrophenyl)urea]: the negative logarithm of the IC50 (pIC50) in experiment [1] is 9.80.
